# Test results published in the supplement of paper PMC10307832.
# Assays:
# Experiment in all cases: relative viability (nuclei count vs DMSO), 5 days (fraction); higher = more cells survive
# CUDC-101 + Olaparib = compound: C#Cc1cccc(Nc2ncnc3cc(OC)c(OCCCCCCC(=O)NO)cc23)c1 [CUDC-101] + O=C(c1cc(Cc2n[nH]c(=O)c3ccccc23)ccc1F)N1CCN(C(=O)C2CC2)CC1 [Olaparib] (partner 8 µM)
# How it was run: (§1)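 Values are medians from duplicate plates. Each reflects relative viability, defined as the nuclei count of treated wells over that of vehicle wells. Lung cancer cell lines in 1536-well plates were pin-tool dosed one day after seeding with one drug alone or with a fixed anchor-drug dose plus five library-drug doses (not always all listed) in √10 steps, then fixed, stained and imaged at 4× after 5 days.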
# NVP-TAE684 + Pictilisib = compound: COc1cc(N2CCC(N3CCN(C)CC3)CC2)ccc1Nc1ncc(Cl)c(Nc2ccccc2S(=O)(=O)C(C)C)n1 [NVP-TAE684] + CS(=O)(=O)N1CCN(Cc2cc3nc(-c4cccc5[nH]ncc45)nc(N4CCOCC4)c3s2)CC1 [Pictilisib] (partner 1 µM)
# How it was run: as §1
# NVP-TAE684 + AZD7762 = compound: COc1cc(N2CCC(N3CCN(C)CC3)CC2)ccc1Nc1ncc(Cl)c(Nc2ccccc2S(=O)(=O)C(C)C)n1 [NVP-TAE684] + NC(=O)Nc1cc(-c2cccc(F)c2)sc1C(=O)N[C@H]1CCCNC1 [AZD7762] (partner 0.2 µM)
# How it was run: as §1
# Vandetanib + Olaparib = compound: COc1cc2/c(=N/c3ccc(Br)cc3F)nc[nH]c2cc1OCC1CCN(C)CC1 [Vandetanib] + O=C(c1cc(Cc2n[nH]c(=O)c3ccccc23)ccc1F)N1CCN(C(=O)C2CC2)CC1 [Olaparib] (partner 8 µM)
# How it was run: as §1
cell line,measurement,setting,value
NCI-H1734,relative viability,CUDC-101 + Olaparib; first compound 0.01 µM,0.663
same,relative viability,CUDC-101 + Olaparib; first compound 0.03162 µM,0.606
same,relative viability,CUDC-101 + Olaparib; first compound 0.1 µM,0.59
same,relative viability,CUDC-101 + Olaparib; first compound 0.3162 µM,0.697
same,relative viability,CUDC-101 + Olaparib; first compound 1 µM,0.499
same,relative viability,NVP-TAE684 + Pictilisib; first compound 0.2 µM,0.422
same,relative viability,NVP-TAE684 + Pictilisib; first compound 0.6325 µM,0.364
same,relative viability,NVP-TAE684 + Pictilisib; first compound 2 µM,0.336
same,relative viability,NVP-TAE684 + AZD7762; first compound 0.2 µM,0.481
same,relative viability,NVP-TAE684 + AZD7762; first compound 0.6325 µM,0.443
same,relative viability,NVP-TAE684 + AZD7762; first compound 2 µM,0.432
same,relative viability,Vandetanib + Olaparib; first compound 0.02 µM,0.58
same,relative viability,Vandetanib + Olaparib; first compound 0.06325 µM,0.576
same,relative viability,Vandetanib + Olaparib; first compound 0.2 µM,0.679
same,relative viability,Vandetanib + Olaparib; first compound 0.6325 µM,0.612
same,relative viability,Vandetanib + Olaparib; first compound 2 µM,0.572
EMC-BAC-2,relative viability,CUDC-101 + Olaparib; first compound 0.01 µM,0.493
same,relative viability,CUDC-101 + Olaparib; first compound 0.03162 µM,0.485
same,relative viability,CUDC-101 + Olaparib; first compound 0.1 µM,0.485
same,relative viability,CUDC-101 + Olaparib; first compound 0.3162 µM,0.532
same,relative viability,CUDC-101 + Olaparib; first compound 1 µM,0.376
same,relative viability,NVP-TAE684 + Pictilisib; first compound 0.2 µM,0.527
same,relative viability,NVP-TAE684 + Pictilisib; first compound 0.6325 µM,0.513
same,relative viability,NVP-TAE684 + Pictilisib; first compound 2 µM,0.456
same,relative viability,NVP-TAE684 + AZD7762; first compound 0.2 µM,1.12
same,relative viability,NVP-TAE684 + AZD7762; first compound 2 µM,0.536
same,relative viability,Vandetanib + Olaparib; first compound 0.02 µM,0.509
same,relative viability,Vandetanib + Olaparib; first compound 0.06325 µM,0.478
same,relative viability,Vandetanib + Olaparib; first compound 0.2 µM,0.498
same,relative viability,Vandetanib + Olaparib; first compound 0.6325 µM,0.492
same,relative viability,Vandetanib + Olaparib; first compound 2 µM,0.531
NCI-H1915,relative viability,CUDC-101 + Olaparib; first compound 0.01 µM,0.25
same,relative viability,CUDC-101 + Olaparib; first compound 0.03162 µM,0.232
same,relative viability,CUDC-101 + Olaparib; first compound 0.1 µM,0.225
same,relative viability,CUDC-101 + Olaparib; first compound 0.3162 µM,0.229
same,relative viability,CUDC-101 + Olaparib; first compound 1 µM,0.164
same,relative viability,NVP-TAE684 + Pictilisib; first compound 0.2 µM,0.98
same,relative viability,NVP-TAE684 + Pictilisib; first compound 0.6325 µM,0.932
same,relative viability,NVP-TAE684 + Pictilisib; first compound 2 µM,0.874
same,relative viability,NVP-TAE684 + AZD7762; first compound 0.2 µM,0.699
same,relative viability,NVP-TAE684 + AZD7762; first compound 0.6325 µM,0.742
same,relative viability,NVP-TAE684 + AZD7762; first compound 2 µM,0.595
same,relative viability,Vandetanib + Olaparib; first compound 0.02 µM,0.244
same,relative viability,Vandetanib + Olaparib; first compound 0.06325 µM,0.227
same,relative viability,Vandetanib + Olaparib; first compound 0.2 µM,0.265
same,relative viability,Vandetanib + Olaparib; first compound 0.6325 µM,0.231
same,relative viability,Vandetanib + Olaparib; first compound 2 µM,0.24
NCI-H358,relative viability,CUDC-101 + Olaparib; first compound 0.01 µM,0.641
same,relative viability,CUDC-101 + Olaparib; first compound 0.03162 µM,0.625
same,relative viability,CUDC-101 + Olaparib; first compound 0.1 µM,0.66
same,relative viability,CUDC-101 + Olaparib; first compound 0.3162 µM,0.543
same,relative viability,CUDC-101 + Olaparib; first compound 1 µM,0.408
same,relative viability,NVP-TAE684 + Pictilisib; first compound 0.2 µM,0.305
same,relative viability,NVP-TAE684 + Pictilisib; first compound 0.6325 µM,0.261
same,relative viability,NVP-TAE684 + Pictilisib; first compound 2 µM,0.219
same,relative viability,NVP-TAE684 + AZD7762; first compound 0.2 µM,0.55
same,relative viability,NVP-TAE684 + AZD7762; first compound 0.6325 µM,0.298
same,relative viability,NVP-TAE684 + AZD7762; first compound 2 µM,0.225
same,relative viability,Vandetanib + Olaparib; first compound 0.02 µM,0.552
same,relative viability,Vandetanib + Olaparib; first compound 0.06325 µM,0.527
same,relative viability,Vandetanib + Olaparib; first compound 0.2 µM,0.646
same,relative viability,Vandetanib + Olaparib; first compound 0.6325 µM,0.472
same,relative viability,Vandetanib + Olaparib; first compound 2 µM,0.319
CAL-12T,relative viability,CUDC-101 + Olaparib; first compound 0.01 µM,0.734
same,relative viability,CUDC-101 + Olaparib; first compound 0.03162 µM,0.681
same,relative viability,CUDC-101 + Olaparib; first compound 0.1 µM,0.752
same,relative viability,CUDC-101 + Olaparib; first compound 0.3162 µM,0.772
same,relative viability,CUDC-101 + Olaparib; first compound 1 µM,0.668
same,relative viability,NVP-TAE684 + Pictilisib; first compound 0.2 µM,0.36
same,relative viability,NVP-TAE684 + Pictilisib; first compound 0.6325 µM,0.245
same,relative viability,NVP-TAE684 + Pictilisib; first compound 2 µM,0.305
same,relative viability,NVP-TAE684 + AZD7762; first compound 0.2 µM,0.741
same,relative viability,NVP-TAE684 + AZD7762; first compound 0.6325 µM,0.492
same,relative viability,NVP-TAE684 + AZD7762; first compound 2 µM,0.418
same,relative viability,Vandetanib + Olaparib; first compound 0.02 µM,0.663
same,relative viability,Vandetanib + Olaparib; first compound 0.06325 µM,0.692
same,relative viability,Vandetanib + Olaparib; first compound 0.2 µM,0.765
same,relative viability,Vandetanib + Olaparib; first compound 0.6325 µM,0.676
same,relative viability,Vandetanib + Olaparib; first compound 2 µM,0.65
NCI-H2085,relative viability,CUDC-101 + Olaparib; first compound 0.01 µM,0.766
same,relative viability,CUDC-101 + Olaparib; first compound 0.03162 µM,0.806
same,relative viability,CUDC-101 + Olaparib; first compound 0.1 µM,0.721
same,relative viability,CUDC-101 + Olaparib; first compound 0.3162 µM,0.813
same,relative viability,CUDC-101 + Olaparib; first compound 1 µM,0.676
same,relative viability,NVP-TAE684 + Pictilisib; first compound 0.2 µM,0.445
same,relative viability,NVP-TAE684 + Pictilisib; first compound 0.6325 µM,0.427
same,relative viability,NVP-TAE684 + Pictilisib; first compound 2 µM,0.415
same,relative viability,NVP-TAE684 + AZD7762; first compound 0.2 µM,0.991
same,relative viability,NVP-TAE684 + AZD7762; first compound 0.6325 µM,0.953
same,relative viability,NVP-TAE684 + AZD7762; first compound 2 µM,0.797
same,relative viability,Vandetanib + Olaparib; first compound 0.02 µM,0.77
same,relative viability,Vandetanib + Olaparib; first compound 0.06325 µM,0.72
same,relative viability,Vandetanib + Olaparib; first compound 0.2 µM,0.808
same,relative viability,Vandetanib + Olaparib; first compound 0.6325 µM,0.769
same,relative viability,Vandetanib + Olaparib; first compound 2 µM,0.712
